Measured values taken from patent US9102678B2, “Compounds and methods for inhibiting mitotic progression” (Millennium Pharmaceuticals, Inc., priority 2004, dated 2015).

These molecules were tested against T1, recombinant murine Aurora A enzyme (Mus musculus, UniProt P97477) (assay: Aurora A DELFIA Kinase Assay). Conditions: mouse Aurora A, 250 μM ATP; threshold less than or equal to 100 nM; read-out: IC50.
T1 construct: hexahistidine (His6) (N); made in house; host or cells: insect cells, baculovirus (Bac-to-Bac, Invitrogen)
T1 sequence (P97477 whole entry): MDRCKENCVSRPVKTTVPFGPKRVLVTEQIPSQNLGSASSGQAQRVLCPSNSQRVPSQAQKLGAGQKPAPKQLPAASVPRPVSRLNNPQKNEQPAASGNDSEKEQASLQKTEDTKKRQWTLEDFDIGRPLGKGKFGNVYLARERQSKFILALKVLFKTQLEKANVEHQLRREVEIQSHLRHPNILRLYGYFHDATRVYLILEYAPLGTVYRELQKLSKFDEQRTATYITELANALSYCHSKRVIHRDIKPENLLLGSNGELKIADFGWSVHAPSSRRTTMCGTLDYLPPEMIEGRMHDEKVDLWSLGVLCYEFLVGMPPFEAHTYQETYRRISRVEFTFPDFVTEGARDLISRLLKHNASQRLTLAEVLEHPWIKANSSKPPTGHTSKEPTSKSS
Assay type: biochemical
Excerpt: Recombinant mouse Aurora A with an amino-terminus hexahistidine tag (His-Aurora A) was expressed using a standard baculovirus vector and insect cell expression system (Bac-to-Bac®, Invitrogen).
Soluble, recombinant mouse Aurora A was purified from insect cells using Ni-NTA agarose (Qiagen) as described by the manufacturer and further purified over an S75 size exclusion column (Amersham Pharmacia Biotech).
Aurora A DELFIA® Kinase Assay
The enzymatic reaction mixture, with and without Aurora inhibitors, was incubated for 15 minutes at room temperature before termination with 100 μL of stop buffer (1% BSA, 0.05% Surfact-AMPS-20, and 100 mM EDTA). A total of 100 μL of the enzyme reaction mixture was transferred to wells of a Neutravidin-coated 96-well plate (Pierce) and incubated at room temperature for 30 minutes. The wells were washed with wash buffer (25 mM Tris, 150 mM sodium chloride, and 0.1% Tween 20) and incubated for 1 hour with 100 μL of antibody reaction mixture containing 1% BSA, 0.05% Surfact-AMPS-20, anti-phospho-PKA rabbit polyclonal antibody (1:2000, New England Biolabs), and europium labeled anti-rabbit IgG (1:2000, Perkin Elmer). The wells were washed and then the bound europium was liberated using 100 μL of Enhancement Solution (Perkin Elmer). Quantification of europium was done using a Wallac™ EnVision (Perkin Elmer).

IC50, ≤ 100 nM:
CNCCNC(=O)c1ccc(Nc2ncc3c(n2)-c2ccc(Cl)cc2C(c2ccccc2F)=NC3)cc1 [Compound I-1, 4-[9-Chloro-7-(2-fluoro-phenyl)-5H-benzo[c]pyrimido[4,5-e]azepin-2-ylamino]-N-(2-methylamino-ethyl)-benzamide]
CN(CCN)C(=O)c1ccc(Nc2ncc3c(n2)-c2ccc(Cl)cc2C(c2ccccc2F)=NC3)cc1 [Compound I-2, N-(2-Amino-ethyl)-4-[9-chloro-7-(2-fluoro-phenyl)-5H-benzo[c]pyrimido[4,5-e]azepin-2-ylamino]-N-methyl-benzamide]
CNCCN(C)C(=O)c1ccc(Nc2ncc3c(n2)-c2ccc(Cl)cc2C(c2ccccc2F)=NC3)cc1 [Compound I-3, 4-[9-Chloro-7-(2-fluoro-phenyl)-5H-benzo[c]pyrimido[4,5-e]azepin-2-ylamino]-N-methyl-N-(2-methylamino-ethyl)-benzamide]
CN(C)CCNC(=O)c1ccc(Nc2ncc3c(n2)-c2ccc(Cl)cc2C(c2ccccc2F)=NC3)cc1 [Compound I-4, 4-[9-Chloro-7-(2-fluoro-phenyl)-5H-benzo[c]pyrimido[4,5-e]azepin-2-ylamino]-N-(2-dimethylamino-ethyl)-benzamide]
CN(C)CCN(C)C(=O)c1ccc(Nc2ncc3c(n2)-c2ccc(Cl)cc2C(c2ccccc2F)=NC3)cc1 [Compound I-5, 4-[9-Chloro-7-(2-fluoro-phenyl)-5H-benzo[c]pyrimido[4,5-e]azepin-2-ylamino]-N-(2-dimethylamino-ethyl)-N-methyl-benzamide]
CN(C)CCCNC(=O)c1ccc(Nc2ncc3c(n2)-c2ccc(Cl)cc2C(c2ccccc2F)=NC3)cc1 [Compound I-6, 4-[9-Chloro-7-(2-fluoro-phenyl)-5H-benzo[c]pyrimido[4,5-e]azepin-2-ylamino]-N-(3-dimethylamino-propyl)-benzamide]
CN(C)CCCN(C)C(=O)c1ccc(Nc2ncc3c(n2)-c2ccc(Cl)cc2C(c2ccccc2F)=NC3)cc1 [Compound I-7, 4-[9-Chloro-7-(2-fluoro-phenyl)-5H-benzo[c]pyrimido[4,5-e]azepin-2-ylamino]-N-(3-dimethylamino-propyl)-N-methyl-benzamide]
O=C(c1ccc(Nc2ncc3c(n2)-c2ccc(Cl)cc2C(c2ccccc2F)=NC3)cc1)N1CCNCC1 [Compound I-8, {4-[9-Chloro-7-(2-fluoro-phenyl)-5H-benzo[c]pyrimido[4,5-e]azepin-2-ylamino]-phenyl}-piperazin-1-yl-methanone]
CN1CCN(C(=O)c2ccc(Nc3ncc4c(n3)-c3ccc(Cl)cc3C(c3ccccc3F)=NC4)cc2)CC1 [Compound I-9, {4-[9-Chloro-7-(2-fluoro-phenyl)-5H-benzo[c]pyrimido[4,5-e]azepin-2-ylamino]-phenyl}-(4-methyl-piperazin-1-yl)-methanone]
CN1CCN(C(=O)c2ccc(Nc3ncc4c(n3)-c3ccc(Cl)cc3C(c3ccccc3Cl)=NC4)cc2)CC1 [Compound I-10, {4-[9-Chloro-7-(2-chloro-phenyl)-5H-benzo[c]pyrimido[4,5-e]azepin-2-ylamino]-phenyl}-(4-methyl-piperazin-1-yl)-methanone]
Cc1ccccc1C1=NCc2cnc(Nc3ccc(C(=O)N4CCN(C)CC4)cc3)nc2-c2ccc(Cl)cc21 [Compound I-11, [4-(9-Chloro-7-o-tolyl-5H-benzo[c]pyrimido[4,5-e]azepin-2-ylamino)-phenyl]-(4-methyl-piperazin-1-yl)-methanone]
COc1ccccc1C1=NCc2cnc(Nc3ccc(C(=O)N4CCN(C)CC4)cc3)nc2-c2ccc(Cl)cc21 [Compound I-12, {4-[9-Chloro-7-(2-methoxy-phenyl)-5H-benzo[c]pyrimido[4,5-e]azepin-2-ylamino]-phenyl}-(4-methyl-piperazin-1-yl)-methanone]
Cc1ccc2c(c1)C(c1ccccc1F)=NCc1cnc(Nc3ccc(C(=O)N4CCN(C)CC4)cc3)nc1-2 [Compound I-14, {4-[7-(2-Fluoro-phenyl)-9-methyl-5H-benzo[c]pyrimido[4,5-e]azepin-2-ylamino]-phenyl}-(4-methyl-piperazin-1-yl)-methanone]
CN1CCN(C(=O)Cc2cccc(Nc3ncc4c(n3)-c3ccc(Cl)cc3C(c3ccccc3F)=NC4)c2)CC1 [Compound I-15, 2-{3-[9-Chloro-7-(2-fluoro-phenyl)-5H-benzo[c]pyrimido[4,5-e]azepin-2-ylamino]-phenyl}-1-(4-methyl-piperazin-1-yl)-ethanone]
O=C(NC1CCNCC1)c1ccc(Nc2ncc3c(n2)-c2ccc(Cl)cc2C(c2ccccc2F)=NC3)cc1 [Compound I-16, 4-[9-Chloro-7-(2-fluoro-phenyl)-5H-benzo[c]pyrimido[4,5-e]azepin-2-ylamino]-N-piperidin-4-yl-benzamide]
NC1CCN(C(=O)c2ccc(Nc3ncc4c(n3)-c3ccc(Cl)cc3C(c3ccccc3F)=NC4)cc2)CC1 [Compound I-17, (4-Amino-piperidin-1-yl)-{4-[9-chloro-7-(2-fluoro-phenyl)-5H-benzo[c]pyrimido[4,5-e]azepin-2-ylamino]-phenyl}-methanone]
CN(C)C1CCN(C(=O)c2ccc(Nc3ncc4c(n3)-c3ccc(Cl)cc3C(c3ccccc3F)=NC4)cc2)CC1 [Compound I-18, {4-[9-Chloro-7-(2-fluoro-phenyl)-5H-benzo[c]pyrimido[4,5-e]azepin-2-ylamino]-phenyl}-(4-dimethylamino-piperidin-1-yl)-methanone]
CN1CCN(CCCNC(=O)c2ccc(Nc3ncc4c(n3)-c3ccc(Cl)cc3C(c3ccccc3F)=NC4)cc2)CC1 [Compound I-19, 4-[9-Chloro-7-(2-fluoro-phenyl)-5H-benzo[c]pyrimido[4,5-e]azepin-2-ylamino]-N-[3-(4-methyl-piperazin-1-yl)-propyl]-benzamide]
CN1CCN(CCCNC(=O)c2ccc(Nc3ncc4c(n3)-c3ccc(Cl)cc3C(c3ccccc3Cl)=NC4)cc2)CC1 [Compound I-20, 4-[9-Chloro-7-(2-chloro-phenyl)-5H-benzo[c]pyrimido[4,5-e]azepin-2-ylamino]-N-[3-(4-methyl-piperazin-1-yl)-propyl]-benzamide]
Cc1ccccc1C1=NCc2cnc(Nc3ccc(C(=O)NCCCN4CCN(C)CC4)cc3)nc2-c2ccc(Cl)cc21 [Compound I-21, 4-(9-Chloro-7-o-tolyl-5H-benzo[c]pyrimido[4,5-e]azepin-2-ylamino)-N-[3-(4-methyl-piperazin-1-yl)-propyl]-benzamide]
COc1ccccc1C1=NCc2cnc(Nc3ccc(C(=O)NCCCN4CCN(C)CC4)cc3)nc2-c2ccc(Cl)cc21 [Compound I-22, 4-[9-Chloro-7-(2-methoxy-phenyl)-5H-benzo[c]pyrimido[4,5-e]azepin-2-ylamino]-N-[3-(4-methyl-piperazin-1-yl)-propyl]-benzamide]
Cc1ccc2c(c1)C(c1ccccc1F)=NCc1cnc(Nc3ccc(C(=O)NCCCN4CCN(C)CC4)cc3)nc1-2 [Compound I-24, 4-[7-(2-Fluoro-phenyl)-9-methyl-5H-benzo[c]pyrimido[4,5-e]azepin-2-ylamino]-N-[3-(4-methyl-piperazin-1-yl)-propyl]-benzamide]
CN1CCN(CCCNC(=O)Cc2cccc(Nc3ncc4c(n3)-c3ccc(Cl)cc3C(c3ccccc3F)=NC4)c2)CC1 [Compound I-25, 2-{3-[9-Chloro-7-(2-fluoro-phenyl)-5H-benzo[c]pyrimido[4,5-e]azepin-2-ylamino]-phenyl}-N-[3-(4-methyl-piperazin-1-yl)-propyl]-acetamide]
O=C(c1ccc(Nc2ncc3c(n2)-c2ccc(Cl)cc2C(c2ccccc2F)=NC3)cc1)N1CCOCC1 [Compound I-26, {4-[9-Chloro-7-(2-fluoro-phenyl)-5H-benzo[c]pyrimido[4,5-e]azepin-2-ylamino]-phenyl}-morpholin-4-yl-methanone]
O=C(c1ccc(Nc2ncc3c(n2)-c2ccc(Cl)cc2C(c2ccccc2F)=NC3)cc1)N(CCO)CCO [Compound I-27, 4-[9-Chloro-7-(2-fluoro-phenyl)-5H-benzo[c]pyrimido[4,5-e]azepin-2-ylamino]-N,N-bis-(2-hydroxy-ethyl)-benzamide]
O=C(c1ccc(Nc2ncc3c(n2)-c2ccc(Cl)cc2C(c2ccccc2Cl)=NC3)cc1)N1CCOCC1 [Compound I-28, {4-[9-Chloro-7-(2-chloro-phenyl)-5H-benzo[c]pyrimido[4,5-e]azepin-2-ylamino]-phenyl}-morpholin-4-yl-methanone]
O=C(NCCN1CCOCC1)c1ccc(Nc2ncc3c(n2)-c2ccc(Cl)cc2C(c2ccccc2F)=NC3)cc1 [Compound I-29, 4-[9-Chloro-7-(2-fluoro-phenyl)-5H-benzo[c]pyrimido[4,5-e]azepin-2-ylamino]-N-(2-morpholin-4-yl-ethyl)-benzamide]
